Key:
[1] = target: T1, PSMA-expressing LS174T cells (LS174T-PSMA) (Homo sapiens, UniProt Q04609); assay: Binding and internalization assay with 111In-labeled ligands; format: cell-based; details: 2 h 37 °C
T1 construct: expressed in transfected cells; host or cells: LS174T colon carcinoma cells (human), stably transfected with pcDNA3.1-hPSMA
Procedure: Cell lines were purchased from the American Type Culture Collection. LS174T colon carcinoma cells were stably transfected with human PSMA using the plasmid pcDNA3.1-hPSMA and cultured in RPMI 1640 medium supplemented with 2 mM glutamine, 10% FCS, and 0.3 mg/ml G418 at 37 °C in a humidified atmosphere with 5% CO2 [5].
Binding and internalization characteristics of all ligands were compared using LS174T-PSMA and wildtype LS174T cells. Cells were cultured to confluency in 6-wells plates followed by incubation at 37 °C for 2 h in 1 ml binding buffer (RPMI/0.5% BSA) with 50,000 counts per minute (cpm) of ^111In-labeled ligand (0.1-0.25 pmol/well). Nonspecific binding was determined by coincubation with 2-(phosphonomethyl)pentane-1,5-dioic acid (2-PMPA, 21.57 µM). PSMA-specific binding was defined as nonspecific binding subtracted from total binding. To retrieve the membrane-bound fraction, cells were washed with PBS twice and incubated with acid buffer (0.1 M acetic acid, 154 mM NaCl, pH 2.6) for 10 minutes at 0 °C. After incubation, the membrane bound fraction (in acid buffer) was collected, cells were washed, lysed with 0.1 M NaOH and cell lysis (intercellular activity) was collected. Membrane-bound activity and intercellular activity fractions were measured in a gamma-counter (2480 WIZARD^2 Automatic Gamma Counter, PerkinElmer), [25]. Human serum was used to determine the in vitro serum stability of the multimodal ligands (0.8 µg/ml serum, 5 MBq/μg labeling). After incubation for 2 h at 37°C, serum proteins were precipitated by adding a 1:1 (v/v) volume of acetonitrile followed by 5 min of centrifugation at 3220×g. Stability was evaluated by RP-HPLC analysis after 2 h of incubation at 37 °C. […] Experimental details are described in the supplementary materials and methods.

[2] = Lipophilicity, PBS/n-octanol; format: physicochemical; details: radiolabeled ligand
Procedure: Tubes were vortexed vigorously for 1 min and centrifuged for 5 min at 201×g for phase separation. The concentration of radioactivity in a defined volume of each layer was measured in a well-type gamma-counter.

In vitro serum stability = format: in vitro ADME, human; details: 2 h, 37°C, RP-HPLC
Procedure: (§1) Binding and internalization characteristics of all ligands were compared using LS174T-PSMA and wildtype LS174T cells. Cells were cultured to confluency in 6-wells plates followed by incubation at 37 °C for 2 h in 1 ml binding buffer (RPMI/0.5% BSA) with 50,000 counts per minute (cpm) of ^111In-labeled ligand (0.1-0.25 pmol/well). Nonspecific binding was determined by coincubation with 2-(phosphonomethyl)pentane-1,5-dioic acid (2-PMPA, 21.57 µM). PSMA-specific binding was defined as nonspecific binding subtracted from total binding. To retrieve the membrane-bound fraction, cells were washed with PBS twice and incubated with acid buffer (0.1 M acetic acid, 154 mM NaCl, pH 2.6) for 10 minutes at 0 °C. After incubation, the membrane bound fraction (in acid buffer) was collected, cells were washed, lysed with 0.1 M NaOH and cell lysis (intercellular activity) was collected. Membrane-bound activity and intercellular activity fractions were measured in a gamma-counter (2480 WIZARD^2 Automatic Gamma Counter, PerkinElmer), [25]. Human serum was used to determine the in vitro serum stability of the multimodal ligands (0.8 µg/ml serum, 5 MBq/μg labeling). After incubation for 2 h at 37°C, serum proteins were precipitated by adding a 1:1 (v/v) volume of acetonitrile followed by 5 min of centrifugation at 3220×g. Stability was evaluated by RP-HPLC analysis after 2 h of incubation at 37 °C. […]

[3] = tested on: LS174T-PSMA and LS174T xenografts; assay: Biodistribution of 111In-labeled multimodal ligands; format: in vivo, BALB/c nude mice; details: 0.3 nmol, 2 h p.i.
Procedure: Animal experiments were performed in 8-10 weeks old male BALB/c nude mice (Janvier). Animals were housed in individually ventilated cages (Blue line IVC, 4-5 mice per cage) under nonsterile standard conditions with cage enrichment present and free access to chlorophyll-free animal chow (Sniff GmbH) and water. Mice were subcutaneously inoculated with 3.0 x 10^6 LS174T-PSMA cells in the left flank and 1.5 × 10^6 LS174T cells in the right flank, diluted in 200 μL of complete RPMI 1640 medium. Eleven days after tumor cell inoculation when xenografts were approximately 0.1 cm^3, tracers were injected intravenously via the tail vein. The researchers were not blinded for the experimental groups and tumor-bearing mice were block-randomized into groups based on tumor size. All experiments were approved by the institutional Animal Welfare Committee of the Radboud university medical center and were conducted in accordance to the guidelines of the Revised Dutch Act on Animal Experimentation.
Mice were injected intravenously with 10 MBq ^111In-labeled PSMA ligands (0.3 nmol, molar activity 33.3 MBq/nmol) in PBS/0.5% BSA. Two hours post injection, mice were euthanized by CO2/O2-asphyxation and images were acquired with the IVIS fluorescence imaging system (Xenogen VivoVision IVIS Lumina II, Caliper Life Sciences), using an acquisition time of 10 s. Subsequently, µSPECT/CT images were acquired (U-SPECT II, MILabs) with a 1.0 mm diameter pinhole mouse collimator tube [26]. Mice were scanned for 30 min followed by a CT scan (spatial resolution 160 μm, 65 kV, 615 μA) for anatomical reference. µSPECT/CT scans were reconstructed with MILabs reconstruction software, using an ordered-subset expectation maximization algorithm, energy windows 154 - 188 keV and 220-270 keV, 3 iterations, 16 subsets, voxel size of 0.4 mm. SPECT/CT scans were analyzed and maximum intensity projections (MIPs) were created using the Inveon Research Workplace software version 4.1 (Siemens Preclinical Solutions). NIRF images were analyzed using Living Image software version 4.2 (Caliper Life Sciences). Tissues of interest were dissected, weighed and measured for radioactivity in a gamma-counter as described above. In the fluorescence-guided surgery feasibility study, pre-operative imaging was performed to visualize tumor tissue. After white light resection, NIRF imaging was repeated to assess if any remaining tumor was present.

[4] = target: T2, PSMA-expressing LS174T-PSMA cells (Homo sapiens, UniProt Q04609); assay: Competitive binding assay (IC50); details: on ice 2 h
T2 construct: expressed in transfected cells; host or cells: LS174T colon carcinoma cells (human), stably transfected with pcDNA3.1-hPSMA
T2 sequence (Q04609 whole entry): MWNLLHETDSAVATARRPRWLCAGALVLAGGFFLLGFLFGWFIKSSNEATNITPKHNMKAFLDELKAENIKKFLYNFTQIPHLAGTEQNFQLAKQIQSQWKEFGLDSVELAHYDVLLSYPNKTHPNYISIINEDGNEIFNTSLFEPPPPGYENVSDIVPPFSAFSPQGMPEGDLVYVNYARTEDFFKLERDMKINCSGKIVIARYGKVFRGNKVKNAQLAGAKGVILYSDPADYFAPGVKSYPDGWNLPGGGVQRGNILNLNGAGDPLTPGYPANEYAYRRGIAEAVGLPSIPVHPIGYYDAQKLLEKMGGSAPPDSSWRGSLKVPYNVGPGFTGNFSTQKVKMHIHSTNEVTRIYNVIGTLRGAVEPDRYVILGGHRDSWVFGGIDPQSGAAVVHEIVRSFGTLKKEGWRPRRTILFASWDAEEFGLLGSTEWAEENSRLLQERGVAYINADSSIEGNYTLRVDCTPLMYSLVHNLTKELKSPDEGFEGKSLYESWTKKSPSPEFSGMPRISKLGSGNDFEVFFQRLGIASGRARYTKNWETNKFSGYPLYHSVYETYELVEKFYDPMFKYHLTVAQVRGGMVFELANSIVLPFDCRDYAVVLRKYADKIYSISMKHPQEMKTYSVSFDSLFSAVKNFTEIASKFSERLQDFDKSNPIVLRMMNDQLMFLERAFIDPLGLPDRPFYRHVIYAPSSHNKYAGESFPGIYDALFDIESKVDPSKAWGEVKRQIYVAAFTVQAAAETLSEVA
Procedure: as §1, with “After incubation, the membrane bound fraction (in acid buffer) was collected, cells were washed, lysed with 0.1 M NaOH and cell lysis (intercellular activity) was collected.” left out, “Human serum was used to determine the in vitro serum stability of the multimodal ligands (0.8 µg/ml serum, 5 MBq/μg labeling). After incubation for 2 h at 37°C, serum proteins were precipitated by adding a 1:1 (v/v) volume of acetonitrile followed by 5 min of centrifugation at 3220×g.” left out
(§2) Scatchard analysis was performed to determine the dissociation constant (Kd) of the N064 ligand. […] Non-specific binding was determined by coincubation with 1 µM PSMA-617. […] Cell lysis was collected from the plate and the cell-associated activity was measured in a γ-counter. […] To determine PSMA antigen density per cell and the Kd of multimodal ligands, data were analyzed by linear regression using GraphPad Prism software. […]

[5] = target: T3, LS174T-PSMA-positive cells (Homo sapiens, UniProt Q04609); assay: Scatchard analysis (Kd); format: binding; details: on ice 4 h
T3 construct: expressed in transfected cells; host or cells: LS174T colon carcinoma cells (human), stably transfected with pcDNA3.1-hPSMA
T3 sequence (Q04609 whole entry): as above
Procedure: as §1, with “After incubation, the membrane bound fraction (in acid buffer) was collected, cells were washed, lysed with 0.1 M NaOH and cell lysis (intercellular activity) was collected.” left out, “Human serum was used to determine the in vitro serum stability of the multimodal ligands (0.8 µg/ml serum, 5 MBq/μg labeling). After incubation for 2 h at 37°C, serum proteins were precipitated by adding a 1:1 (v/v) volume of acetonitrile followed by 5 min of centrifugation at 3220×g.” left out
as §2

T1 sequence (Q04609 whole entry): as above

Internalized fraction [1] | Membrane bound fraction [1] | LogD [2] | Adrenals [3] | Blood [3] | Bone [3] | Bone marrow [3] | Duodenum [3] | Heart [3] | Kidney [3] | Liver [3] | Lung [3] | Muscle [3] | Pancreas [3] | Prostate [3] | Salivary glands [3] | Spleen [3] | Stomach [3] | Tumor- LS174T [3] | Tumor/Blood ratio [3] | further results | Structure (SMILES)
0.9 ± 0.06 | 0.4 ± 0.05 | -2.4 ± 0.15 | 0.9 %ID/g | 0.2 %ID/g | 0.3 %ID/g | 0.3 %ID/g | 0.2 %ID/g | 0.3 %ID/g | 59 %ID/g | 0.5 %ID/g | 0.4 %ID/g | 0.1 %ID/g | 0.2 %ID/g | 0.5 %ID/g | 0.4 %ID/g | 1.3 %ID/g | 0.3 %ID/g | 0.4 %ID/g | 41.1 | Stability in human serum (In vitro serum stability): stable; Tumor+ LS174T-PSMA [3]: 6.5 %ID/g; Tumor/Kidney ratio [3]: 0.2; Tumor/Liver ratio [3]: 13.7; Tumor/Muscle ratio [3]: 71.9; Tumor/Negative tumor ratio [3]: 24.1; Tumor/Prostate ratio [3]: 17.2; Tumor/Salivary gland ratio [3]: 21.5; Tumor/Spleen ratio [3]: 5.7 | C[Si](C)(CCC[N+](CCCS(=O)(=O)O)(CCCS(=O)(=O)O)CCCS(=O)(=O)O)O[Si-2]123(O[Si](C)(C)CCC[N+](CCCS(=O)(=O)O)(CCCS(=O)(=O)O)CCCS(=O)(=O)O)n4c5c6ccccc6c4N=C4c6cccc(OCCCOC(=O)NCCCCCC(=O)NCCCC[C@H](NC(=O)CCC(C(=O)O)N7CCN(CC(=O)O)CCN(CC(=O)O)CCN(CC(=O)O)CC7)C(=O)NCCOCCOCCOCCOCCC(=O)N[C@H](Cc7ccccc7)C(=O)N[C@@H](CCC(=O)O)C(=O)N[C@@H](CCC(=O)O)C(=O)NCCCCCC(=O)NCCCC[C@H](NC(=O)N[C@@H](CCC(=O)O)C(=O)O)C(=O)O)c6C(=[N+]41)N=c1c4ccccc4c(n12)=NC1=[N+]3C(=N5)c2ccccc21.[Na+].[Na+].[Na+].[Na+] (some centres unmarked) [N111]
1.1 ± 0.05 | 0.3 ± 0.04 | -2.3 ± 0.11 | 0.7 %ID/g | 0.2 %ID/g | 0.2 %ID/g | 0.4 %ID/g | 0.2 %ID/g | 0.3 %ID/g | 51.4 %ID/g | 0.6 %ID/g | 0.3 %ID/g | 0.1 %ID/g | 0.2 %ID/g | 0.3 %ID/g | 0.3 %ID/g | 0.6 %ID/g | 0.2 %ID/g | 0.4 %ID/g | 62.6 | Tumor+ LS174T-PSMA [3]: 9.1 ± 2 %ID/g; Tumor/Kidney ratio [3]: 0.2; Tumor/Liver ratio [3]: 15.9; Tumor/Muscle ratio [3]: 106.4; Tumor/Negative tumor ratio [3]: 27.1; Tumor/Prostate ratio [3]: 32.7; Tumor/Salivary gland ratio [3]: 33.2; Tumor/Spleen ratio [3]: 17.3 | C[Si](C)(CCC[N+](CCCS(=O)(=O)O)(CCCS(=O)(=O)O)CCCS(=O)(=O)O)O[Si-2]123(O[Si](C)(C)CCC[N+](CCCS(=O)(=O)O)(CCCS(=O)(=O)O)CCCS(=O)(=O)O)n4c5c6ccccc6c4N=C4c6cccc(OCCCOC(=O)NCCCCCC(=O)NCCCC[C@H](NC(=O)CCOCCOCCOCCOCCNC(=O)CN7CCN(CC(=O)O)CCN(CC(=O)O)CCN(CC(=O)O)CC7)C(=O)N[C@H](Cc7ccccc7)C(=O)N[C@@H](CCC(=O)O)C(=O)N[C@@H](CCC(=O)O)C(=O)NCCCCCC(=O)NCCCC[C@H](NC(=O)N[C@@H](CCC(=O)O)C(=O)O)C(=O)O)c6C(=[N+]41)N=c1c4ccccc4c(n12)=NC1=[N+]3C(=N5)c2ccccc21.[Na+].[Na+].[Na+].[Na+] [NJ27]
 |  |  |  |  |  |  |  |  |  |  |  |  |  |  |  |  |  |  |  | IC50 [4]: 52.7 nM; Kd [5]: 15 ± 1.1 nM | O=C(O)CC[C@H](NC(=O)N[C@@H](CCCCNC(=O)[C@H](Cc1ccc2ccccc2c1)NC(=O)[C@H]1CC[C@H](CNC(=O)CN2CCN(CC(=O)O)CCN(CC(=O)O)CCN(CC(=O)O)CC2)CC1)C(=O)O)C(=O)O [PSMA-617]
3.6 ± 0.22 | 0.5 ± 0.20 | -2.4 ± 0.10 | 2.5 %ID/g | 0.3 %ID/g | 1.2 %ID/g | 0.4 %ID/g | 0.6 %ID/g | 0.5 %ID/g | 112.8 %ID/g | 1 ± 0.2 %ID/g | 0.7 %ID/g | 0.3 %ID/g | 0.4 %ID/g | 1.4 %ID/g | 0.6 %ID/g | 3.1 ± 1 %ID/g | 0.5 %ID/g | 0.5 %ID/g | 56 | Tumor/Kidney ratio [3]: 0.2; Tumor/Liver ratio [3]: 15.2; Tumor/Muscle ratio [3]: 72.3; Tumor/Negative tumor ratio [3]: 36.7; Tumor/Prostate ratio [3]: 32.9; Tumor/Salivary gland ratio [3]: 28.8; Tumor/Spleen ratio [3]: 5.2 | C[Si](C)(CCC[N+](CCCS(=O)(=O)O)(CCCS(=O)(=O)O)CCCS(=O)(=O)O)O[Si-2]123(O[Si](C)(C)CCC[N+](CCCS(=O)(=O)O)(CCCS(=O)(=O)O)CCCS(=O)(=O)O)n4c5c6ccccc6c4N=C4c6cccc(OCCCOC(=O)NCCCCCC(=O)NCCCC[C@H](NC(=O)CCC(C(=O)O)N7CCN(CC(=O)O)CCN(CC(=O)O)CCN(CC(=O)O)CC7)C(=O)N[C@@H](CCC(=O)O)C(=O)N[C@@H](CCC(=O)O)C(=O)N[C@@H](CCC(=O)O)C(=O)NCCCCCC(=O)NCCCC[C@H](NC(=O)N[C@@H](CCC(=O)O)C(=O)O)C(=O)O)c6C(=[N+]41)N=c1c4ccccc4c(n12)=NC1=[N+]3C(=N5)c2ccccc21.[Na+].[Na+].[Na+].[Na+] (some centres unmarked) [N143]
